Patent US8853406B2, “Substituted phenylenediamines as inhibitors of the interaction between MDM2 and P53” (Janssen Pharmaceutica NV, priority 2007, dated 2014)

Test system: human U87 gliomoblastoma xenograft tumors
Assay: In vivo anti tumour effects, U87 glioblastoma xenograft
Set-up: species or system NMRI Nude mice
Conditions: for tumor growth of pre-established U87 xenograft: 21 days; for in vivo antitumoral activity: s.c. U87 xenograft in NMRI Nude mice
Protocol: FIG. 7 is the Antitumoral effect of compound No. 1 in U87 Glioblastoma Xenograft Tumors in NMRI Nude mice: • On day 0, male NMRI Nude mice were inoculated with a single subcutaneous injection into the inguinal region with human U87 Glioblastoma tumor cells ([…]). On day 8, mice were treated p.o. with vehicle (control group; 10% hydroxypropyl-β-cyclodextrin (□)) or vehicle containing Co No. 1 at either 2.5 mg/kg (▴), 5 mg/kg (▾), 10 mg/kg (♦) or 20 mg/kg (●) for 21 days (QD×21). Subcutaneous tumor volumes and body weights were measured twice weekly, until end of study and results represented as relative tumor volumes (mm^3). Dosing period indicated under x-axis.
The minimal efficacious dose (according to the NCI standard) in this model was 5 mg/kg.
Immuno-deficient (athymic) male NMRI Nude (Nu/Nu) mice (20-25 g were obtained from Janvier, France) were used for theses studies. Initial weight was approximately […]. All animals were maintained under SPF “full barrier” conditions with free access to food and water. Mice were group housed under a 12-h light:dark cycle (lights on at 06:00 h) at a temperature of 19 to 22° C. and 35 to 40% humidity in Techniplast type-3 IVC cages. Mice were fed a standard Laboratory chow. All experiments were carried out in accordance with the European Communities Council Directives (86/609/EEC) and were approved by the local ethical committee. For an established tumor xenograft model (tumor volume ˜200 mm^3), mice were randomized according to tumor volumes, with 10 to 14 mice per treatment group.
The human U87 glioma tumor cell line was derived from a patient. Cells were cultured at 37° C. in a humidified atmosphere (5% CO2, 95% air), in DMEM medium supplemented with 2 mM L-glutamine, 2.0 mM sodium pyruvate, 25 units/ml penicillin/25 μg/ml streptomycin and 10% fetal bovine serum. Cells were maintained as cell monolayer cultures, being passaged twice weekly at 3×10^6 cells per T175 flask using the following procedure. Briefly cells were washed with PBS (without Mg^2+, Ca^2+), before addition of trypsin-EDTA to the culture flasks. After detachment of cells the trypsin-EDTA was inactivated by addition of complete medium. Cell suspension was then transferred to 50 ml Falcon tube and centrifuged for 3 min at 1200 rpm. Medium was aspirated, with the cells being re-suspended in an appropriate volume of complete medium. The cells were counted in a haemocytometer and their viability was assessed by 0.25% trypan blue exclusion. An appropriate volume of cell suspension was then added to either a new T175 culture flask(s) or roller bottle containing fresh medium. For large scale-up growth of U87 tumor cells, an appropriate number of roller bottles were seeded with 0.5 to 1×10^7 cells 1 week prior to inoculation of mice. The medium was changed twice during this period, with the last change being the day prior to cell injection. Cells were collected as described above, with the exception that after centrifugation, the cells were re-suspended in cold (4° C.) serum-free medium. Mice were injected in the inguinal region with 1×10^7 cells total in a 200 μl volume.
Human U87 glioma cells were injected directly into the inguinal region of the male NMRI Nude mice (1×10^7 cells/200 μl/animal) on day 0 (D0). […] Tumor size and body weights were measured twice weekly, with mice monitored daily for clinical signs of toxicity for the duration of the treatment. […]

Compound	tumor growth of pre-established U87 xenograft (10 mg/kg oral)	tumor growth of pre-established U87 xenograft (20 mg/kg oral)	minimal efficacious dose (according to the NCI standard) (U87 xenograft, oral QD x 21) [mg/kg]	in vivo antitumoral activity (listed as Co No. 1)	in vivo antitumoral activity
Cc1cc(Nc2ccnc3c2CCC3O)ccc1NCCc1c[nH]c2c(C)cccc12 (single isomer, unassigned) [Compound No. 1]	complete tumor growth inhibition and regression	complete tumor growth inhibition and regression	5	potent inhibition in growth	
Cc1cc(Nc2ccnc3c2CCC3O)ccc1NCCc1c[nH]c2c(C)cccc12 (single isomer, unassigned) [Compound No. 2]					showed in vivo antitumoral activity
